Data published in ChEMBL document CHEMBL1201862, “PubChem BioAssay data set” (2004).
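Each compound was tested at five concentrations against cells in 96-well plates for 48 hours. At the GI50, growth is halved.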 Calls of active or inactive are those of the source. Cut-off read from the data, not from the text of the source: active = GI50 up to about 1.1 µM and inactive = higher.

Tests used:
Assay in all cases: NCI anticancer screen, dose series, 48 h
[1] = system: IGROV-1
[2] = system: SK-OV-3
[3] = system: MDA-N
[4] = system: SNB-75
[5] = system: NCI-H460
[6] = system: SW-620
[7] = system: TK-10
[8] = system: OVCAR-3
[9] = system: SK-MEL-5
[10] = system: HOP-92
[11] = system: ACHN
[12] = system: SK-MEL-28
[13] = system: SF-295
[14] = system: OVCAR-5
[15] = system: A498
[16] = system: K562
[17] = system: UACC-62
[18] = system: MCF7
[19] = system: CAKI-1
[20] = system: SF-539

Measured: GI50

Nc1ccccc1.O=P(O)(OP(=O)(O)c1ccccc1)c1ccccc1
inactive: [1] > 100 µM | [2] > 100 µM | [3] > 100 µM | [4] > 100 µM | [5] > 100 µM | [6] > 100 µM | [7] > 100 µM | [8] > 100 µM | [9] > 100 µM | [10] > 100 µM | [11] > 100 µM | [12] > 100 µM | [13] 96.4 µM | [14] > 100 µM | [15] > 100 µM | [16] > 100 µM | [17] > 100 µM | [18] > 100 µM | [19] > 100 µM

Cc1[nH]n(-c2ccc(S(=O)(=O)O)cc2)c(=O)c1/N=N/c1ccccc1
inactive: [1] > 100 µM | [2] > 100 µM | [3] > 100 µM | [4] > 100 µM | [5] > 100 µM | [6] > 100 µM | [7] > 100 µM | [8] > 100 µM | [9] > 100 µM | [10] > 100 µM | [11] 55.2 µM | [12] > 100 µM | [13] > 100 µM | [14] > 100 µM | [15] > 100 µM | [16] > 100 µM | [17] 95.1 µM | [20] > 100 µM | [18] > 100 µM | [19] > 100 µM

C[N+]1(CCC[N+]2(C)CC3C4C=CC(CC4)C3C2)CCOCC1 (configuration not stated)
inactive: [1] > 100 µM | [2] > 100 µM | [3] > 100 µM | [4] > 100 µM | [6] > 100 µM | [7] > 100 µM | [8] > 100 µM | [9] 18.5 µM | [10] > 100 µM | [11] > 100 µM | [12] > 100 µM | [13] > 100 µM | [14] > 100 µM | [15] > 100 µM | [16] > 100 µM | [17] > 100 µM | [20] > 100 µM | [18] > 100 µM | [19] > 100 µM

CC(=O)N1C(C(=O)NNc2ccccc2)CSC1c1ccccc1 (configuration not stated)
inactive: [1] 36.6 µM | [2] > 100 µM | [3] > 100 µM | [4] > 100 µM | [5] > 100 µM | [6] > 100 µM | [7] > 100 µM | [8] 58.2 µM | [9] > 100 µM | [10] > 100 µM | [11] 4.47 µM | [13] > 100 µM | [14] > 100 µM | [15] > 100 µM | [16] 3.42 µM | [17] 1.39 µM | [20] 62.8 µM | [18] > 100 µM | [19] > 100 µM

CC1(C)OC(=O)C(C#N)=C1C[n+]1ccccc1
inactive: [1] > 10 µM | [2] > 10 µM | [3] > 10 µM | [4] > 10 µM | [5] > 10 µM | [6] > 10 µM | [7] > 10 µM | [8] > 10 µM | [9] > 10 µM | [10] > 10 µM | [11] > 10 µM | [12] > 10 µM | [13] > 10 µM | [14] > 10 µM | [15] > 10 µM | [16] > 10 µM | [20] > 10 µM | [18] > 10 µM | [19] > 10 µM

O=C(O)c1ccc(OCc2nc3cc(C(F)(F)F)ccc3nc2-c2ccccc2)cc1
inactive: [1] 56 µM | [3] 46.1 µM | [4] 17.2 µM | [5] 24.7 µM | [6] 53.2 µM | [7] 71 µM | [8] 34.8 µM | [9] 32.1 µM | [10] 29 µM | [11] 30.9 µM | [12] 61 µM | [13] 39.1 µM | [14] > 100 µM | [15] > 100 µM | [16] 39.4 µM | [17] 37.6 µM | [20] 32.1 µM | [18] 45 µM | [19] 5.52 µM

O=C1Nc2nnc(S)n2NC12c1ccccc1-c1ccccc12
inactive: [1] 96.6 µM | [2] > 100 µM | [3] 34.5 µM | [4] > 100 µM | [5] 39.4 µM | [6] > 100 µM | [7] > 100 µM | [8] > 100 µM | [9] > 100 µM | [10] > 100 µM | [11] > 100 µM | [12] > 100 µM | [13] > 100 µM | [14] > 100 µM | [15] > 100 µM | [17] 22.4 µM | [20] > 100 µM | [18] 33.2 µM | [19] 57.3 µM

COC(=O)CCC1(O)C=CC(=O)C=C1
inactive: [1] 20.6 µM | [3] 63.4 µM | [4] > 100 µM | [5] 28.2 µM | [6] 29.8 µM | [7] 36.7 µM | [8] 24.4 µM | [9] 31.9 µM | [10] 65.6 µM | [11] 51.6 µM | [12] 23.2 µM | [13] > 100 µM | [14] > 100 µM | [15] > 100 µM | [16] 38.9 µM | [17] 20.3 µM | [20] 25.8 µM | [18] 38.3 µM | [19] 16.6 µM

COC(=O)CCCC(=O)NC1=C(Nc2ccc(OC)cc2)C(=O)c2ccccc2C1=O
inactive: [1] 18 µM | [2] 34.1 µM | [3] 20.7 µM | [4] 32.2 µM | [5] 15.9 µM | [6] 40.7 µM | [7] > 100 µM | [8] 6.25 µM | [10] 71 µM | [11] 28 µM | [12] 20.9 µM | [13] 30.4 µM | [14] 18.8 µM | [15] 20.7 µM | [16] 23.9 µM | [17] 12.8 µM | [20] 19.3 µM | [18] 17.1 µM | [19] 43.2 µM

C=C(C)C1CC/C(C)=C/CCC2(C)OC2CC/C(CO)=C\C1O (configuration not stated)
inactive: [1] 68.1 µM | [2] > 100 µM | [3] > 100 µM | [4] 45.7 µM | [5] 42.7 µM | [6] > 100 µM | [7] > 100 µM | [8] > 100 µM | [10] 7.28 µM | [11] > 100 µM | [12] > 100 µM | [13] 40.9 µM | [14] > 100 µM | [15] > 100 µM | [16] 42 µM | [17] 80 µM | [20] 67 µM | [18] 91.4 µM | [19] > 100 µM

Cc1nc(=O)[nH]c2s/c(=N/C3CCCCC3)n(C3CCCCC3)c(=O)c12
inactive: [1] > 100 µM | [2] > 100 µM | [3] > 100 µM | [4] > 100 µM | [6] > 100 µM | [7] > 100 µM | [8] > 100 µM | [9] > 100 µM | [10] > 100 µM | [11] > 100 µM | [12] > 100 µM | [13] > 100 µM | [14] > 100 µM | [15] > 100 µM | [16] > 100 µM | [17] > 100 µM | [20] > 100 µM | [18] > 100 µM | [19] > 100 µM

O=C1c2ccccc2-c2oc(=O)c3ccccc3c21
inactive: [1] 32.7 µM | [2] > 100 µM | [3] > 100 µM | [4] > 100 µM | [5] > 100 µM | [6] > 100 µM | [7] > 100 µM | [8] > 100 µM | [9] > 100 µM | [10] > 100 µM | [11] > 100 µM | [12] > 100 µM | [13] > 100 µM | [14] > 100 µM | [15] > 100 µM | [17] > 100 µM | [20] > 100 µM | [18] > 100 µM | [19] > 100 µM

N=C(N)C1CN(CC=O)C(=O)NC1=O (configuration not stated)
inactive: [1] > 100 µM | [2] > 100 µM | [3] > 100 µM | [4] > 100 µM | [5] > 100 µM | [6] > 100 µM | [7] > 100 µM | [8] > 100 µM | [9] > 100 µM | [10] > 100 µM | [11] > 100 µM | [12] > 100 µM | [13] > 100 µM | [14] > 100 µM | [15] > 100 µM | [16] > 100 µM | [17] > 100 µM | [18] > 100 µM

Cc1n[nH]c(=O)n1C1CCCC1
inactive: [1] > 100 µM | [3] > 100 µM | [4] > 100 µM | [5] > 100 µM | [6] > 100 µM | [7] > 100 µM | [8] > 100 µM | [9] > 100 µM | [10] > 100 µM | [11] > 100 µM | [12] > 100 µM | [13] > 100 µM | [14] > 100 µM | [15] > 100 µM | [16] > 100 µM | [20] > 100 µM | [18] > 100 µM | [19] > 100 µM

CCOC(=O)NC(C(F)(F)F)(C(F)(F)F)P(=O)(OCC)OCC
inactive: [1] 40.6 µM | [2] 34.9 µM | [3] 29.2 µM | [4] 19.9 µM | [5] 31.7 µM | [6] 17.9 µM | [7] 82 µM | [8] 45.2 µM | [10] 81.7 µM | [11] 35.9 µM | [12] 43.4 µM | [13] 51.2 µM | [14] 57.1 µM | [15] 46.3 µM | [16] 10.9 µM | [17] 28 µM | [18] 75.2 µM
